Earlier results in publication PMC7904743, “WIDOCK: a reactive docking protocol for virtual screening of covalent inhibitors” (Journal of Computer-Aided Molecular Design, 2021).
Read-outs that look alike come from different tables or passages of the source.

Tests used:
[1] = tested on: OTUB2; details: experimental actives if % labeling higher than 50%, cited from earlier work
[2] = thiol reactivity, cited from earlier work
[3] = tested on: NUDT7; details: protein labeling at 200 μM; experimental actives if % labeling higher than 50%; cited from earlier work
[4] = natural log of average rate constant k
[5] = natural logarithm of average rate constant
[6] = natural log of average kinetic rate constant
[7] = natural log of average rate constant

Row | Structure (SMILES) | OTUB2 % labeling [1] [%] | ln(avg k) [2, 4] | ln(avg k) [2, 5] | NUDT7 % labeling [3] [%] | OTUB2 % labeling ([1]; OTUB2 protein labeling) [%] | ln(avg k) [2, 6] | ln(avg k) [2, 7]
1 | CN1C(=O)c2ccc(NC(=O)CCl)cc2C1=O [PCM-0102309, CN1C(=O)c2ccc(NC(=O)CCl)cc2C1=O] | 19 | -15.418 | -15.418 | 12 | – | – | –
2 | NS(=O)(=O)c1ccccc1NC(=O)CCl [PCM-0102903, NS(=O)(=O)c1ccccc1NC(=O)CCl] | – | – | – | 29 | 14 | -14.783 | -14.783
3 | CN(Cc1ccccc1Br)C(=O)CCl [PCM-0102592, CN(Cc1ccccc1Br)C(=O)CCl] | 12 | -16.295 | -16.295 | 14 | – | – | –
4 | Cc1ccc(-c2cc(NC(=O)CCl)on2)cc1 [PCM-0102382, Cc1ccc(-c2cc(NC(=O)CCl)on2)cc1] | 45 | -15.819 | -15.819 | 81 | – | – | –
5 | O=C(CCl)Nc1ccc(Cl)cc1 [PCM-0102120, O=C(CCl)Nc1ccc(Cl)cc1] | 23 | -15.805 | -15.805 | 18 | – | – | –
6 | CC(C)(C)c1cc(NC(=O)CCl)n(-c2ccccc2)n1 [PCM-0102536, CC(C)(C)c1cc(NC(=O)CCl)n(-c2ccccc2)n1] | 14 | -15.955 | -15.955 | 0 | – | – | –
7 | CN(Cc1ccccc1)C(=O)CCl [PCM-0102984, CN(Cc1ccccc1)C(=O)CCl] | – | – | – | 11 | 0 | -16.386 | -16.386
8 | O=C(CCl)N1CCN(S(=O)(=O)c2ccccc2F)CC1 [PCM-0102281, O=C(CCl)N1CCN(S(=O)(=O)c2ccccc2F)CC1] | 0 | -15.235 | -15.235 | 14 | – | – | –
9 | NS(=O)(=O)c1cccc(NC(=O)CCl)c1 [PCM-0102162, NS(=O)(=O)c1cccc(NC(=O)CCl)c1] | 58 | -15.171 | -15.171 | 0 | – | – | –
10 | Cc1sc(NC(=O)CCl)c(C#N)c1C [PCM-0102202, Cc1sc(NC(=O)CCl)c(C#N)c1C] | 0 | -15.804 | -15.804 | 0 | – | – | –
11 | NS(=O)(=O)c1ccc(NC(=O)CCl)cc1 [PCM-0102807, NS(=O)(=O)c1ccc(NC(=O)CCl)cc1] | – | – | – | 0 | 29 | -15.463 | -15.463
12 | O=C(CCl)N1c2ccccc2NC(=O)C12CCCC2 [PCM-0102159, O=C(CCl)N1c2ccccc2NC(=O)C12CCCC2] | 0 | -14.824 | -14.824 | 18 | – | – | –
13 | CCC1c2ccsc2CCN1C(=O)CCl (stereo not drawn) [PCM-0103051, CCC1c2ccsc2CCN1C(=O)CCl] | – | – | – | 30 | 0 | -15.594 | -15.594
14 | O=C(CCl)NC(=O)Nc1ccc2c(c1)OCCO2 [PCM-0102614, O=C(CCl)NC(=O)Nc1ccc2c(c1)OCCO2] | 27 | -16.380 | -16.380 | 23 | – | – | –
15 | O=C(CCl)NC1CCSC1=O (stereo not drawn) [PCM-0103062, O=C(CCl)NC1CCSC1=O] | – | – | – | 0 | 0 | -17.032 | -17.032
16 | O=C(CCl)Nc1ccon1 [PCM-0103077, O=C(CCl)Nc1ccon1] | – | – | – | 0 | 30 | -16.220 | -16.220
17 | COc1ccc(NC(=O)CCl)cc1 [PCM-0102156, COc1ccc(NC(=O)CCl)cc1] | 52 | -15.521 | -15.521 | 0 | – | – | –
18 | O=C(CCl)NC1CCS(=O)(=O)C1 (stereo not drawn) [PCM-0102138, O=C(CCl)NC1CCS(=O)(=O)C1] | 0 | -15.936 | -15.936 | 0 | – | – | –
19 | CC1CCCCC1NC(=O)NC(=O)CCl (stereo not drawn) [PCM-0102292, CC1CCCCC1NC(=O)NC(=O)CCl] | 24 | -15.785 | -15.785 | 0 | – | – | –
20 | O=C(CCl)Nc1ccccc1C(=O)O [PCM-0102307, O=C(CCl)Nc1ccccc1C(=O)O] | 0 | -17.138 | -17.138 | 0 | – | – | –
21 | O=C(CCl)N1CCN(C2CCS(=O)(=O)C2)CC1 (stereo not drawn) [PCM-0102405, O=C(CCl)N1CCN(C2CCS(=O)(=O)C2)CC1] | 0 | -15.476 | -15.476 | 0 | – | – | –
